Test results from patent US20240115557A1, “INHIBITORS OF RNA-GUIDED NUCLEASES AND USES THEREOF” (The Brigham and Women's Hospital, Inc., priority 2022, published 2024).

Molecular target: SpCas9 (Streptococcus pyogenes serotype M1, UniProt Q99ZW2)
Assay: eGFP disruption assay, SpCas9, U2OS.eGFP.PEST cells
Format: cell-based
Details: for Normalized Z rep1 / Z score Rep1: replicate 1; for SpCas9 eGFP disruption Rep1: replicate 1, raw readout; for Normalized Z rep2 / Z socre Rep2: replicate 2; for SpCas9 eGFP disruption Rep2: replicate 2, raw readout
Excerpt: In some embodiments, the secondary assay may be an EGFP disruption assay. In such assay, a quantitative human cell-based reporter assay that enables rapid quantitation of targeted nuclease activities is used to characterize off-target cleavage of Cas9-based RNA guided endonucleases. In this assay, the activities of nucleases targeted to a single integrated EGFP reporter gene can be quantified by assessing loss of fluorescence signal in human U2OS.EGFP cells caused by inactivating frameshift insertion/deletion (indel) mutations introduced by error prone non-homologous end-joining (NHEJ) repair of nuclease-induced double-stranded breaks (DSBs).
In one protocol, U2OS.EGFP cells harboring a single integrated copy of an EGFP-PEST fusion gene are cultured (see e.g., Reyon et al., Nat Biotech 30, 460-465 (2012), which is herein incorporated by reference in its entirety). For transfections, 200,000 cells are Nucleofected with gRNA expression plasmid and pJDS246 together with 30 ng of a Td-tomato-encoding plasmid using the SE Cell Line 4D-Nucleofector™ X Kit (Lonza) according to the manufacturer's protocol. Cells are analyzed 2 days post-transfection using a BD LSRII flow cytometer. Transfections for optimizing gRNA/Cas9 plasmid concentration are performed in triplicate and all other transfections are performed in duplicate. PCR amplification is used for sequence verification of endogenous human genomic sites. PCR reactions are performed using Phusion Hot Start II high-fidelity DNA polymerase (NEB). Loci are amplified using touchdown PCR (98° C., 10 s; 72-62° C., −1° C./cycle, 15s; 72° C., 30 s] 10 cycles, [98° C., 10s; 62° C., 15s; 72° C., 30 s] 25 cycles). Alternatively, PCR for other targets is performed with 35 cycles at a constant annealing temperature of 68° C. or 72° C., and 3% DMSO or IM betaine, if necessary. PCR products are analyzed on a QIAXCEL capillary electrophoresis system to verify both size and purity. Validated products are treated with ExoSap-IT (Affymetrix) and sequenced by the Sanger method (MGH DNA Sequencing Core) to verify each target site.
Primary and secondary screening. The primary screen assayed a selection of unique chemical scaffolds derived from commercially available compounds and known bioactive molecular libraries (Table 7). Auto-fluorescent compounds were removed by a counter screen. Overall, the CAA was used to assay 122,409 small molecules with over 2,500 unique chemical scaffolds (FIG. 64F, Table 7). Of these compounds, 547 were selected as hits (Z score >3 in both replicates) for testing in orthogonal cell-based secondary assays. Hits were tested in duplicate in an eGFP disruption assay, wherein U2OS.eGFP.PEST cells^33 transfected with SpCas9 plasmid and eGFP-targeting gRNA plasmid were incubated with 20 μM of the compounds. In this assay, any compound that inhibited SpCas9 would rescue the loss of eGFP fluorescence. Here, toxic and auto-fluorescent compounds with a high GFP signal in cells were removed as false positives. […] Next, Applicants tested the 15 compounds in a luminescence-based gain-of-signal HiBiT knock-in assay, which involves SpCas9-mediated homology-directed tagging of GAPDH with a short peptide that luminesces upon complementation with a subunit derived from nanoluciferase.^34 Complementarily, the eGFP-disruption assay is fluorescence-based and involves error-prone DNA repair. As a counter-screen to remove false positives caused by cell death (viability <80%), the cell viability was measured after incubation.
For SAR studies and dose-response studies, 300,000 U2OS.eGFP.PEST cells were nucleofected with 300 ng of SpCas9 plasmid (Addgene #43861) and 30 ng of eGFP-targeting gRNA plasmid (Addgene #47511)^33 using SE Cell Line 4D-Nucleofector X Kit (Lonza) following the pulse program of DN-100. For RNP-based genome editing, 10 pmol of SpCas9 (GenScript #Z03385) and 12 pmol of gRNA were mixed and incubated for 5 min. […]

[1] = Cas9 = lower control, Ctrl = upper control
[2] = normalized, lower control about 0, upper control about 1

Sequence of SpCas9 (Q99ZW2 whole entry): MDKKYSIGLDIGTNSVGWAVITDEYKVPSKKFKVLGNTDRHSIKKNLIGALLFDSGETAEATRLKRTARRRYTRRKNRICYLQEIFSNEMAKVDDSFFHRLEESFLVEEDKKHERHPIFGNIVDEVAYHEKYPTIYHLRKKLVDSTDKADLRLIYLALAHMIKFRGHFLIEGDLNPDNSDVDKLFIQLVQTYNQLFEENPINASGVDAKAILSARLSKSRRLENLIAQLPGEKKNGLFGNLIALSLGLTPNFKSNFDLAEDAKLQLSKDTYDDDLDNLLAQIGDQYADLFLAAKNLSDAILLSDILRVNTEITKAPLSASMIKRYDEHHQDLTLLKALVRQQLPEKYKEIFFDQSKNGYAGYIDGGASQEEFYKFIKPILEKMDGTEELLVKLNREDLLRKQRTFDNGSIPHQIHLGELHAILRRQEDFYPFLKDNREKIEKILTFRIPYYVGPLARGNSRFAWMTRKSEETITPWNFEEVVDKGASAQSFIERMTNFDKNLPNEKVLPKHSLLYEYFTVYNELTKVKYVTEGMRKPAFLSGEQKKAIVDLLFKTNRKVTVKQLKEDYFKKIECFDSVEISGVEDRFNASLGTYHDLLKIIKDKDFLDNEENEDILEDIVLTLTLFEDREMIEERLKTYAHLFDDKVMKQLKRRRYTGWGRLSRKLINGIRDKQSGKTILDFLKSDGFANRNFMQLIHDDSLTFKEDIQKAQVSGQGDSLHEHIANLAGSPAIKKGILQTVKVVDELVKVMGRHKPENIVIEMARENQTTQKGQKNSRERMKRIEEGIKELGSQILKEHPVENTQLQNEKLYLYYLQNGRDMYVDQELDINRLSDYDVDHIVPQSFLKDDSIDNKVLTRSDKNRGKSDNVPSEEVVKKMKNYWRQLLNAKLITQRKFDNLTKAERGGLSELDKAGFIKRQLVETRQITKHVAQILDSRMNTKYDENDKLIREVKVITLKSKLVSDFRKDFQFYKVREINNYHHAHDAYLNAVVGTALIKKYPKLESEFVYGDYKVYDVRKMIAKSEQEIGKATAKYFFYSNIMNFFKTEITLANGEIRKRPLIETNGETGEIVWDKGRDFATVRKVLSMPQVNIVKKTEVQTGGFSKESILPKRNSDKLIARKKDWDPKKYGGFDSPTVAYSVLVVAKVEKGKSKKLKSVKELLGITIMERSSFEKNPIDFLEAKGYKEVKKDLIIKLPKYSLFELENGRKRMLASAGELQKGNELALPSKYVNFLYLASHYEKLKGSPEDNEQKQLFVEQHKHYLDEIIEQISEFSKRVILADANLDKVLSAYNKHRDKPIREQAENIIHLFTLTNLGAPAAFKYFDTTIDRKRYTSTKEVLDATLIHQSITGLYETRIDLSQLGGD

Structure (SMILES)	Normalized Z rep1	Z score Rep1	SpCas9 eGFP disruption Rep1	Normalized Z rep2	Z socre Rep2	SpCas9 eGFP disruption Rep2	SpCas9 eGFP disruption Rep1 [1]	Normalized Z rep1 [2]	SpCas9 eGFP disruption Rep2 [1]	Normalized Z rep2 [2]
COc1ccc(-c2nnc3sc(-c4cccnc4)nn23)cc1OC [Compound D727-0025]	−0.28	−2.04	60.269	−0.11	−1.05	59.908	–	–	–	–
Cc1ccc(-c2nn3c(-c4cccnc4)nnc3s2)cc1 [Compound D727-0047]	−0.34	−2.47	58.846	−0.29	−2.72	54.891	–	–	–	–
Brc1cccc(-c2nn3c(-c4cccnc4)nnc3s2)c1 [Compound D727-0051]	0.02	0.13	67.429	0.08	0.79	65.459	–	–	–	–
c1cncc(-c2nnc3sc(Cc4ccc5c(c4)OCCO5)nn23)c1 [Compound D727-0088]	−0.24	−1.77	61.161	−0.08	−0.75	60.83	–	–	–	–
COc1ccc(Cc2nnc3sc(-c4ccccc4OC)nn23)cc1 [Compound D727-0159]	−0.57	−4.09	53.496	−0.23	−2.11	56.714	–	–	–	–
Cc1nc2ccccc2n1Cc1nnc2sc(-c3cccnc3)nn12 [Compound D727-0182]	−0.45	−3.22	56.36	0.14	1.30	67.01	–	–	–	–
Fc1cccc(-c2nnc3sc(CCCc4ccccc4)nn23)c1 [Compound D727-0404]	−0.14	−0.99	63.741	−0.34	−3.13	53.633	–	–	–	–
Brc1cccc(-c2nn3c(-c4ccccn4)nnc3s2)c1 [Compound D727-0489]	−0.24	−1.76	61.183	−0.06	−0.58	61.347	–	–	–	–
Clc1ccccc1OCc1nn2c(-c3ccccn3)nnc2s1 [Compound D727-0524]	−0.39	−2.83	57.663	−0.16	−1.47	58.659	–	–	–	–
c1ccc(-c2nnc3sc(-c4ccc5c(c4)OCO5)nn23)nc1 [Compound D727-0536]	−0.16	−1.18	63.106	−0.09	−0.86	60.482	–	–	–	–
COc1ccc(CCc2nnc3sc(-c4ccncc4)nn23)cc1OC [Compound D727-0712]	−0.16	−1.13	63.284	−0.29	−2.66	55.062	–	–	–	–
Cc1nn(-c2ccccc2)c(C)c1CCc1nnc2sc(-c3ccccc3F)nn12 [Compound D727-0713]	–	0.38	–	–	1.08	–	68.26	0.05	66.347	0.12
COc1ccc(-c2nn3c(-c4ccc5ccccc5n4)nnc3s2)cc1OC [Compound D727-0743]	−0.03	−0.23	66.254	−0.13	−1.19	59.503	–	–	–	–
CN(C)c1cccc(-c2nn3c(-c4ccc5ccccc5c4)nnc3s2)c1 [Compound D727-0754]	−0.15	−1.06	63.517	−0.59	−5.54	46.376	–	–	–	–
CN(C)c1ccc(-c2nn3c(-c4ccc5ccccc5n4)nnc3s2)cc1 [Compound D727-0755]	−0.11	−0.83	64.271	−0.09	−0.79	60.694	–	–	–	–
Cc1nn(-c2ccccc2)c(C)c1CCc1nn2c(-c3cccc(F)c3)nnc2s1 [Compound D727-0828]	−0.36	−2.61	58.376	−0.14	−1.34	59.045	–	–	–	–
Cc1nn(-c2ccccc2)c(C)c1CCc1nn2c(-c3ccncc3)nnc2s1 [Compound D727-0837]	−0.15	−1.06	63.496	−0.11	−1.05	59.923	–	–	–	–
Cc1nn(-c2ccccc2)c(C)c1CCc1nn2c(-c3cnccn3)nnc2s1 [Compound D727-0838]	−0.12	−0.86	64.17	−0.21	−1.92	57.281	–	–	–	–
Fc1ccc(-c2nn3c(-c4ccncc4)nnc3s2)cc1Br [Compound D727-0883]	−0.13	−0.93	63.924	−0.09	−0.88	60.422	–	–	–	–
Fc1ccc(-c2nn3c(-c4cnccn4)nnc3s2)cc1Br [Compound D727-0884]	−0.16	−1.16	63.178	−0.23	−2.10	56.742	–	–	–	–
Clc1cccc(-c2nnc3sc(-c4ccc5ccccc5n4)nn23)c1 [Compound D727-0890]	−0.17	−1.24	62.913	−0.22	−2.01	57.037	–	–	–	–
Fc1cccc(-c2nnc3sc(-c4ccc5ccccc5n4)nn23)c1 [Compound D727-0892]	−0.28	−2.03	60.296	−0.34	−3.13	53.657	–	–	–	–
NC(=O)c1sc(=S)n2c1[nH]c(=O)c1cc(Cl)ccc12 [Compound F083-0005]	−0.23	−1.66	61.541	−0.12	−1.09	59.801	–	–	–	–
O=C(NCC1CCCO1)c1sc(=S)n2c1[nH]c(=O)c1cc3c(cc12)OCO3 (stereo not drawn) [Compound F083-0416]	−0.32	−2.28	59.472	−0.05	−0.49	61.595	–	–	–	–
